Data: patent US12152022B2, “N-[5-(aminosulfonyl)-4-methyl-1,3-thiazol-2-yl]-N-methyl-2-[4-(2-pyridinyl)-phenyl]-acetamide free base hemihydrate, methods of manufacture and uses thereof” (AiCuris Anti-Infective Cures GmbH, priority 2016, dated 2024)
Values belong to the compound of their own block, whether it stands above or below them.

How the values were obtained:
herpes simplex virus = conditions: compared with N-[5-(amino-sulfonyl)-4-methyl-1,3-thiazol-2-yl]-N-methyl-2-[4-(2-pyridinyl)phenyl]acetamide; cited from earlier work
[1] = Hygroscopicity / DVS water sorption; type: physicochemical; conditions: for DVS: release and adsorption of water: 25° C., experiment time <600 min for Form C
Text: FIG. 6A: weight vs. relative humidity, FIG. 6B: measurement over time.
(§1) The hemihydrate Form C was isolated on larger scale. The starting material for the screening (Form B) was a monohydrate. Additionally a potential dihydrate (form L) was identified. […] To extend the exposure to different relative humidity (RH) values small vials with solid/saturated solutions were loaded with an open pan of Form C on top and the sealed vials kept for 5 days (see the data below for different humidity levels).

[2] = Saturated solubility in individual excipients; type: physicochemical; conditions: mean, n=3
Text: Comparative Solubility of Free Base and Free Base Hemihydrate in Individual Excipients Saturated solubility (% w/w) of two forms of pritelivir (batches BXR2KVE for the free base and M023862-CA15-033 for pritelivir hemihydrate) in PEG 400 and propylene glycol, mean (range, n=3) are shown in Table 11 below.

[3] = pKa value by photometric titration; type: physicochemical
Protocol: (§2) The physical characterization of the free base hemihydrate referred to herein was performed using compendial methods as per European Pharmacopoeia (Ph. Eur.) and/or the U.S.
(§3) The identified forms were then further characterized by several methods: XRPD, Optical microscopy, ^1H-NMR, DSC, TGA, and DVS. The physical characterization of the free base hemihydrate referred to herein was performed using compendial methods as per European Pharmacopoeia (Ph. Eur.) and/or the U.S. Pharmacopeial Convention (USP).
(§4) General properties of N-[5-(aminosulfonyl)-4-methyl-1,3-thiazol-2-yl]-N-methyl-2-[4-(2-pyridinyl)-phenyl]-acetamide hemihydrate Table 9: […]

[4] = Octanol/water partition coefficient; type: physicochemical; conditions: 25° C.
Protocol: as §2, §3, §4

[5] = Exposure of Form C to different relative humidity values, check by XRPD; type: physicochemical; conditions: <5% to 100% RH, sealed vials, 5 days
Text: as §1

HSV-2 = conditions: once daily suppressive therapy; cited from earlier work

SMILES: C[C@H](Cn1cnc2c(N)ncnc21)OCP(=O)(O)O [Tenofovir]
IC50-values compared to pritelivir (herpes simplex virus): significantly higher

Saturated solubility in PEG 400 ([2]; PEG 400): 3.30 % w/w | Saturated solubility in PEG 400 (free base*) ([2]; PEG 400, column marked *, asterisk not explained): 7.87 % w/w | Saturated solubility in propylene glycol ([2]; Propylene glycol): 0.20 % w/w | Saturated solubility in propylene glycol (free base*) ([2]; Propylene glycol, column marked *, asterisk not explained): 2.84 % w/w
SMILES: Cc1nc(N(C)C(=O)Cc2ccc(-c3ccccn3)cc2)sc1S(N)(=O)=O [pritelivir free base, N-[5-(aminosulfonyl)-4-methyl-1,3-thiazol-2-yl]-N-methyl-2-[4-(2-pyridinyl)-phenyl]-acetamide]
DVS: release and adsorption of water ([1]; listed as Form B): release and adsorb water more rapidly than Form C

Hygroscopicity [1]: Not hygroscopic | DVS: release and adsorption of water ([1]; hemihydrate): almost no change | pKa value (photometric titration) [3]: 4.6 | Saturated solubility in PEG 400 ([2]; PEG 400, hemihydrate): 7.87 % w/w | Saturated solubility in propylene glycol ([2]; Propylene glycol, hemihydrate): 0.59 % w/w | logP [4]: -0.0405 | Solid form by XRPD after humidity exposure [5]: all samples confirmed to be Form C
SMILES: Cc1nc(N(C)C(=O)Cc2ccc(-c3ccccn3)cc2)sc1S(N)(=O)=O [pritelivir hemihydrate, N-[5-(aminosulfonyl)-4-methyl-1,3-thiazol-2-yl]-N-methyl-2-[4-(2-pyridinyl)-phenyl]-acetamide free base hemihydrate]

SMILES: CC(C)[C@H](N)C(=O)OCCOCn1cnc2c(=O)[nH]c(N)nc21 [valacyclovir]
Risk of transmission of genital herpes (HSV-2): significantly reduces the risk of transmission
